Source: patent publication US7112570B2, “GPE analogs” (Neuren Pharmaceuticals, Ltd., priority 2000, dated 2006)
Values belong to the substance of their own block, whether it stands above or below them. Ends that are not written are not given here. 3H = tritium label

Assays:
[1] = test system: hypoxic-ischemic injury, hippocampal CA1/2 neurons; experiment: Neuronal survival after hypoxic-ischemic injury, GPE administered peripherally; format: in vivo; settings: rat, GPE intraperitoneally 2 hours after hypoxia, sacrificed 7 days after injury, FIG. 4
Procedure: This experiment involved treating rats with a control vehicle or GPE administered peripherally 2 hours after a focal CNS injury. […] The degree and length of hypoxia, the ambient temperature and humidity were defmed to standardize the degree of damage. The neuronal death is restricted to the side of the carotid ligation and is primarily in the hippocampus, dentate gyrus, striatum and lateral cortex of the ligated hemisphere. There is no neuronal loss in the contralateral hemisphere.
Specifically forty-nine 50–60 day old adult Wistar rats (280–310 g) were prepared under halothane/O2 anaesthesia. The right side carotid artery was ligated. The rats were allowed to recover for 1 hour and were then placed in an incubator with humidity 90±5% and temperature 31±0.5° C. for 1 hour before hypoxia. Oxygen concentration was reduced and maintained at 6±0.2% 02 for 10 minutes. […]
The rats were transcardially perfised with 0.9% saline followed by 4% paraformaldehyde, and the brains were removed and embedded in paraffin. […] Only cells with a morphology like live neurons were counted, while dead neurons or cells with morphology like glia were not included. […]
A coronal section (A-P 4.5 mm) was used for analysis of the hippocampus. All surviving neurons in the hippocampal CA1/2 region of the injured hemisphere were counted. Data were analysed with paired t-test and presented as mean±sem (standard error of the mean).

[2] = Tissue distribution / brain accumulation of tritiated GPE after cardiac, iv, ip or icv administration; settings: rat
Procedure: (§1) Tritiated GPE (Gly-[^3H]Pro-Glu, 1.6 ml, specific activity 50–60 Ci/mmol) obtained from Sibtech, Inc., USA was used in these experiments.
(§2) Adult Wistar rats (300 g) were prepared under halothane/O2 anaesthesia. The rats were randomly assigned to one of four groups: tritiated GPE, saline+0.1% BSA, tritiated GPE+non-tritiated GPE or tritiated proline. Rats in the tritiated GPE, tritiated proline and control groups were sacrificed at 30 min, 1 hr or 6 hrs after administration. Rats co-administered with both tritiated and non- tritiated GPE were sacrificed at 10 minutes after administration. For all groups, tissue was homogenized in Soluene® (a tissue solubilizer; Packard Bioscience Company, Meriden Conn.) and counted in a β counter.
(§3) Rats were injected with 10 million counts of tritiated GPE in 500 μl total (made up with 0.1% BSA in saline). Animals were sacrificed at 30 minutes, 1, 3 or 6 hrs. Tissue was homogenized in Soluene® and counted in a β counter.
(§4) Adult Wistar rats (300 g) were prepared under halothane/O2 anaesthesia. A guide cannula was placed on the dura 7.5 mm anterior from stereotaxic zero and 1.5 mm from midline on the right. One million counts of GPE and 600 μl of non-tritiated GPE were injected in 8 μl total volume (made up with 0.1% BSA in saline). Rats were sacrificed 30 minutes after administration. Tissue was homogenized in Soluene® and counted in a β counter.
(§5) Tritiated GPE, tritiated GPE+non-tritiated GPE, tritiated proline (Amersham) or tritiated proline+non-tritiated proline in vehicle (0.1M citrate buffer [pH6], diluted 10 times in 0.1% bovine serum albumin in 0.1M phosphate buffered saline [PBS] [pH7.3]) were then given by different routes of administration to injured and non-injured rats according to the following study design:
(§6) Cardiac administration was performed using a syringe. The syringe needle was placed into the left ventricle and one of the above four solutions was given.
(§7) IV administration was carried out by injecting one of the four solutions into the tail vein.
(§8) IP administration was performed by injecting one of the four solutions into the peritoneal cavity.
(§9) ICV administration was carried out according to the following procedure. The rats were lightly anaesthetized again using 0.15 ml Saffan™ (Pitman-Moore Ltd, NZ). The infusion of one of the four solutions was made into the right lateral ventricle guided by a metal cap fitted over the rat head using a modified technique originally described by Jirikowski (J Neuroscience Methods, 42: 115–118, 1992), in order to ensure correct placement of the infusion needle. One of the four solutions was administered in a single dose.
(§10) The rats were sacrificed using pentobarbital 10, 60 or 360 minutes after administration of either tritiated GPE or tritiated proline. […] Counts/minute/mg were made in the following tissues: kidney, blood, adrenal glands, liver, lung, testicle, heart, muscle, spinal cord and brain. HPLC was used in order to check that the particles counted were either tritiated GPE or tritiated proline.

[3] = rat, in vivo
Procedure: as §1, §2, §3, §4, §5, §6, §7, §8, §9, §10

[4] = test system: ^3H-Me-GPE binding sites in the rat brain; experiment: ^3H-Me-GPE binding autoradiography on rat tissue sections; settings: excess (10 μM) of competitor
Procedure: After tritiation the reaction mixture was diluted in ammonium acetate buffer (0.05M, pH 5.5 with 20% v/v methanol, 10 ml) and purified using Accell CM- and QMA+Sep-Paks (Waters, Milford, Mass., USA) in series. After washing with the ammonium acetate buffer to remove reagents and byproducts (tritiated water and tritiated methanol), the CM- and QMA+cartridges were uncoupled and the ^3H-Me-GPE was eluted from the QMA cartridge with ammonium bicarbonate (0.3M, 6 ml). The eluted material was lyophilized twice to remove the bulk of the ammonium bicarbonate, dissolved in ethanol-water (1:19, 20 μl ) and aliquots stored at −70° C.
The following experimental protocol followed guidelines approved by the University of Auckland Animal Ethics Committee. Adult male Wistar rats were killed by decapitation and tissues immediately removed and stored at −80° C. Coronal sections (16 μm) were cut on a cryostat and mounted on gelatin-coated slides. Normal adult human postmortem brain (n=4) tissue was cut and mounted in a similar manner. […]

Substance: Gly-Pro-Glu [GPE]
neuronal survival in the hippocampus after an hypoxic-ischemic injury [1]: increases neuronal survival
uptake in the brain of rats with an hypoxic-ischemic brain injury ([2]; ICV administration): selectively taken up on the injured side of the brain
displacement when tritiated and non-tritiated GPE were administered together ([2]; cardiac administration, supported by ICV administration): the only displacement of GPE occurred in the brain
ability to pass through the blood-brain-barrier ([2]; including in the absence of neural insult): pass through the blood-brain-barrier
amount in the brain compared to the corresponding time-points after iv and cardiac injection ([2]; ip administration): increased

Substance: Gly-[^3H]Pro-Glu (Gly-Pro(3H)-Glu; UniProt P05019 49-51, looked up, fragment) [tritiated GPE]
amount in the brain relative to the blood [3]: increases over time
time-point at which there was the most tritiated GPE in the brain [3]: 60 min

blockade of ^3H-Me-GPE binding in the CA1-2 region [4]: blocked
Substance: N-methyl-GPE
